From publication PMC9005681, “Use of AD Informer Set compounds to explore validity of novel targets in Alzheimer's disease pathology” (Alzheimer's & Dementia : Translational Research & Clinical …, 2022)
Where “and” joins values, the source holds several entries; their conditions need not be identical. Equal values may be shown once.

Experiments:
Test in all cases: PDSP GPCR panel primary binding assays at 10 μM
Details in all cases: primary assay
[1] = molecular target: T1, cloned human or rodent CNS receptors, channels, and transporters (PDSP panel) (Homo sapiens, UniProt P08173)
T1 construct: expressed in transfected cells
T1 sequence (P08173 1-479): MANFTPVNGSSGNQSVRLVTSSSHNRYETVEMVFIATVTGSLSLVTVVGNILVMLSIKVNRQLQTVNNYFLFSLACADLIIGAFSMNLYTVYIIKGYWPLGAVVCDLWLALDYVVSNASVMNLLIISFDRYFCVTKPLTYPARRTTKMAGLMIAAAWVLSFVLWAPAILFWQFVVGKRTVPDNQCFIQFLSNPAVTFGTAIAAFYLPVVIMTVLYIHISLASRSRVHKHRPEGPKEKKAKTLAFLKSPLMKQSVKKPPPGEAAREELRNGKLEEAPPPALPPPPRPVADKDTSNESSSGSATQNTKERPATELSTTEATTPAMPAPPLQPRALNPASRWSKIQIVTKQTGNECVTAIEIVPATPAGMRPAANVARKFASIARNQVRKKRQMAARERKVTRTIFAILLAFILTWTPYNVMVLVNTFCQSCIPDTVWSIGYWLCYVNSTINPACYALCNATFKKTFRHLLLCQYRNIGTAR
Outline: (§1)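 PDSP panel of 46–47 cloned human or rodent CNS receptors, channels and transporters; radioligand displacement by compound at 10 μM, in quadruplicate. Where average displacement exceeded 50%, secondary binding followed as 11-point dose-response in triplicate (none for H3, PBR or GABAA).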

[2] = molecular target: T2, cloned human or rodent CNS receptors, channels, and transporters (PDSP panel) (Homo sapiens, UniProt P21917)
T2 construct: expressed in transfected cells
T2 sequence (P21917 1-419): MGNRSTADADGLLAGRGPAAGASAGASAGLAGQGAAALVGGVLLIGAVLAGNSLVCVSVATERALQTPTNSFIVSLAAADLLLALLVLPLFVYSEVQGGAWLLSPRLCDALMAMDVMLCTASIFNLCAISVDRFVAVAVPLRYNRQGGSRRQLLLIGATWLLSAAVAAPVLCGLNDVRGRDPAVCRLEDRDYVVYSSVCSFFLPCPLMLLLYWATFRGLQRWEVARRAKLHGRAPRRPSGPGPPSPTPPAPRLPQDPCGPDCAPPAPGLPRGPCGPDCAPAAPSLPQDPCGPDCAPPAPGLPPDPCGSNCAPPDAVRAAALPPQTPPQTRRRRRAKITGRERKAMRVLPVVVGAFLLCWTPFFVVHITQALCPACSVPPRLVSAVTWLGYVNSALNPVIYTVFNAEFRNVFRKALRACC
Outline: as §1

[3] = tested on: cloned human or rodent CNS receptors, channels, and transporters (PDSP panel)
Outline: as §1

[4] = molecular target: T3, cloned human or rodent CNS receptors, channels, and transporters (PDSP panel) (Homo sapiens, UniProt P50406)
T3 construct: expressed in transfected cells
Outline: as §1

[5] = molecular target: T4, cloned human or rodent CNS receptors, channels, and transporters (PDSP panel) (Homo sapiens, UniProt P08908)
T4 construct: expressed in transfected cells
T4 sequence (P08908 1-422): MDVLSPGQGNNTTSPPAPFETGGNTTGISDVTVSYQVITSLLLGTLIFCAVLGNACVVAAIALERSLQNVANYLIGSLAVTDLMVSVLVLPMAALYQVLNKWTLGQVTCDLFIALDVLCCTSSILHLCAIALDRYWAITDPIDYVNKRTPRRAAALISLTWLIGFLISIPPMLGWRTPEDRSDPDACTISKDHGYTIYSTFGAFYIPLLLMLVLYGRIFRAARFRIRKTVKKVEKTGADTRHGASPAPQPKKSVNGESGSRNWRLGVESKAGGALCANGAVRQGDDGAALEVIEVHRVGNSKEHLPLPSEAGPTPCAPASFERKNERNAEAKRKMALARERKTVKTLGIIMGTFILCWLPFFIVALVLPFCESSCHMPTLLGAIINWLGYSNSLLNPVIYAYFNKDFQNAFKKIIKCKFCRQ
Outline: as §1

[6] = molecular target: T5, cloned human or rodent CNS receptors, channels, and transporters (PDSP panel) (Homo sapiens, UniProt P20309)
T5 construct: expressed in transfected cells
Outline: as §1

[7] = Receptor BZP Rat Brain Site, 10 μM

T3 sequence (P50406 whole entry): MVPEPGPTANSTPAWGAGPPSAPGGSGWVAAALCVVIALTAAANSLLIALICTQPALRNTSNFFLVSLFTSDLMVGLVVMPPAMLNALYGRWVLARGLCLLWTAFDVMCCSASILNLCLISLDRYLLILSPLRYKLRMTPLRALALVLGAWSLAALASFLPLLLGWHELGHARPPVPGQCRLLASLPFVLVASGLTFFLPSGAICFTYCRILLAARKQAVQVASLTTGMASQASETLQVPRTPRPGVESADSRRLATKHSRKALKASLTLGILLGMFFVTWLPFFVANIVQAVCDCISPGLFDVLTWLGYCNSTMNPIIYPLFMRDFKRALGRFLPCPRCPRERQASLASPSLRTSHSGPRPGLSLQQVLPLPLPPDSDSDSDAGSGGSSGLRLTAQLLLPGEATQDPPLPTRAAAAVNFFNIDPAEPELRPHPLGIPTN
T5 sequence (P20309 whole entry): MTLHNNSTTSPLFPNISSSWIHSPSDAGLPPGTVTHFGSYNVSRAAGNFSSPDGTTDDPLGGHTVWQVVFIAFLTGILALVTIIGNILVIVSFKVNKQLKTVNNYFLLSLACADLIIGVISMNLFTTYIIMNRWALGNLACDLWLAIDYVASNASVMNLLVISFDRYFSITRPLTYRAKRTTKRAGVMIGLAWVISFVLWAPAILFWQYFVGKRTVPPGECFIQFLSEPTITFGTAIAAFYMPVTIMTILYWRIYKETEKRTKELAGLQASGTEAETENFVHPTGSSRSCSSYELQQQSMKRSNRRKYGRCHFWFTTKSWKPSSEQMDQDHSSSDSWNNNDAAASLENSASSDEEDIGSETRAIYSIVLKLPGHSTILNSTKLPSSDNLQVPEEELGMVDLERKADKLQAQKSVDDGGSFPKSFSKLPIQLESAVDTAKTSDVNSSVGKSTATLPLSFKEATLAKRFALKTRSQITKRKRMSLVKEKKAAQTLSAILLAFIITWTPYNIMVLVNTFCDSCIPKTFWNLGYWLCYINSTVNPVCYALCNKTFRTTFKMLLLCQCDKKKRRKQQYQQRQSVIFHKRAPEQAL

## c1cn2cc(-c3ccc4cn[nH]c4c3)nc(Nc3ccc(N4CCOCC4)cc3)c2n1 [UNC10302678A, Entospletinib (GS-9973)]
[1]; Receptor M4, 10 μM
  Inhibition 1: 35.72%
  Inhibition 2: 0.8%
  Inhibition 3: 6.09%
  Inhibition 4: 23.54%
[1]; Receptor M4, 10 μM, mean of Inhibition 1-4
  Mean %: 16.54%
[2]; Receptor D4, 10 μM
  Inhibition 1: 5.16%
  Inhibition 2: 7.36%
  Inhibition 3: -2.39%
  Inhibition 4: 2.39%
[2]; Receptor D4, 10 μM, mean of Inhibition 1-4
  Mean %: 3.13%
[3]; Receptor Alpha1A, 10 μM
  Inhibition 1: -6.64%
  Inhibition 2: -39.37%
  Inhibition 3: -29.27%
  Inhibition 4: -15.24%
[3]; Receptor Alpha1A, 10 μM, mean of Inhibition 1-4
  Mean %: -22.63%
[3]; Receptor Alpha2A, 10 μM
  Inhibition 1: -9.73%
  Inhibition 2: -11.16%
  Inhibition 3: -12.52%
  Inhibition 4: 5.61%
[3]; Receptor Alpha2A, 10 μM, mean of Inhibition 1-4
  Mean %: -6.95%
[3]; Receptor Alpha2C, 10 μM
  Inhibition 1: 4.82%
  Inhibition 2: 7.15%
  Inhibition 3: 3.37%
  Inhibition 4: 11.76%
[3]; Receptor Alpha2C, 10 μM, mean of Inhibition 1-4
  Mean %: 6.78%
[3]; [7]
  Inhibition 1: 2.63%
  Inhibition 2: -6.94%
  Inhibition 3: -0.59%
  Inhibition 4: 10.21%
[3]; Receptor BZP Rat Brain Site, 10 μM, mean of Inhibition 1-4
  Mean %: 1.33%
[3]; Receptor DOR, 10 μM
  Inhibition 1: -7.03%
  Inhibition 2: -15.52%
  Inhibition 3: 1.47%
  Inhibition 4: -11.54%
[3]; Receptor DOR, 10 μM, mean of Inhibition 1-4
  Mean %: -8.16%
[3]; Receptor H3, 10 μM
  Inhibition 1: 4.01%
  Inhibition 2: 32.57%
  Inhibition 3: 40.44%
  Inhibition 4: 49.18%
[3]; Receptor H3, 10 μM, mean of Inhibition 1-4
  Mean %: 31.55%
[3]; Receptor H4, 10 μM
  Inhibition 1: 40.38%
  Inhibition 2: 31.02%
  Inhibition 3: 31.26%
  Inhibition 4: 64.39%
[3]; Receptor H4, 10 μM, mean of Inhibition 1-4
  Mean %: 41.76%
[3]; Receptor Sigma 1, 10 μM
  Inhibition 1: 24.21%
  Inhibition 2: 17.43%
  Inhibition 3: 8.82%
  Inhibition 4: -3.67%
[3]; Receptor Sigma 1, 10 μM, mean of Inhibition 1-4
  Mean %: 11.7%
[3]; Receptor Sigma 2, 10 μM
  Inhibition 1: 10.94%
  Inhibition 2: -1.79%
  Inhibition 3: -3.28%
  Inhibition 4: -0.08%
[3]; Receptor Sigma 2, 10 μM, mean of Inhibition 1-4
  Mean %: 1.45%
[4]; Receptor 5-HT6, 10 μM
  Inhibition 1: -41.25%
  Inhibition 2: -29.65%
  Inhibition 3: -11.39%
  Inhibition 4: -15.68%
[4]; Receptor 5-HT6, 10 μM, mean of Inhibition 1-4
  Mean %: -24.49%
[5]; Receptor 5-HT1A, 10 μM
  Inhibition 1: 14.91%
  Inhibition 2: -0.95%
  Inhibition 3: -3.19%
  Inhibition 4: 6.29%
[5]; Receptor 5-HT1A, 10 μM, mean of Inhibition 1-4
  Mean %: 4.27%
[6]; Receptor M3, 10 μM
  Inhibition 1: 13.32%
  Inhibition 2: 23.97%
  Inhibition 3: 7.51%
  Inhibition 4: 7.37%
[6]; Receptor M3, 10 μM, mean of Inhibition 1-4
  Mean %: 13.04%

## CNc1nc(C)nc(N[C@H]2CCC[C@@H](C(=O)NCc3ccc(C#N)cc3C(F)(F)F)C2)n1 [UNC10302679A, GSK2256294A]
[1]; M4, mean inhibition
  Mean %: 14.93%
[1]; M4, replicate 1
  Inhibition 1: 10.45%
[1]; M4, replicate 2
  Inhibition 2: 4.02%
[1]; M4, replicate 3
  Inhibition 3: 7.46%
[1]; M4, replicate 4
  Inhibition 4: 37.78%
[2]; D4, mean inhibition
  Mean %: 2.7%
[2]; D4, replicate 1
  Inhibition 1: 2.1%
[2]; D4, replicate 2
  Inhibition 2: -2.96%
[2]; D4, replicate 3
  Inhibition 3: 3.54%
[2]; D4, replicate 4
  Inhibition 4: 8.13%
[3]; Alpha1A, mean inhibition
  Mean %: -0.8%
[3]; Alpha1A, replicate 1
  Inhibition 1: -1.03%
[3]; Alpha1A, replicate 2
  Inhibition 2: -7.95%
[3]; Alpha1A, replicate 3
  Inhibition 3: -14.5%
[3]; Alpha1A, replicate 4
  Inhibition 4: 20.29%
[3]; Alpha2A, mean inhibition
  Mean %: -5.79%
[3]; Alpha2A, replicate 1
  Inhibition 1: -3.6%
[3]; Alpha2A, replicate 2
  Inhibition 2: -9.38%
[3]; Alpha2A, replicate 3
  Inhibition 3: -7.24%
[3]; Alpha2A, replicate 4
  Inhibition 4: -2.95%
[3]; Alpha2C, mean inhibition
  Mean %: 1.02%
[3]; Alpha2C, replicate 1
  Inhibition 1: 11.32%
[3]; Alpha2C, replicate 2
  Inhibition 2: 1.35%
[3]; Alpha2C, replicate 3
  Inhibition 3: -11.52%
[3]; Alpha2C, replicate 4
  Inhibition 4: 2.93%
[3]; BZP Rat Brain Site, mean inhibition
  Mean %: 4.01%
[3]; BZP Rat Brain Site, replicate 1
  Inhibition 1: 13.82%
[3]; BZP Rat Brain Site, replicate 2
  Inhibition 2: 5.95%
[3]; BZP Rat Brain Site, replicate 3
  Inhibition 3: -2.77%
[3]; BZP Rat Brain Site, replicate 4
  Inhibition 4: -0.97%
[3]; DOR, mean inhibition
  Mean %: 1.65%
[3]; DOR, replicate 1
  Inhibition 1: 14.12%
[3]; DOR, replicate 2
  Inhibition 2: -1.97%
[3]; DOR, replicate 3
  Inhibition 3: -1.78%
[3]; DOR, replicate 4
  Inhibition 4: -3.77%
[3]; GABAA, mean inhibition
  Mean %: -6.38% and -12.1%
[3]; GABAA, replicate 1
  Inhibition 1: -3.42% and -8.72%
[3]; GABAA, replicate 2
  Inhibition 2: -12.29% and -15.74%
[3]; GABAA, replicate 3
  Inhibition 3: -18.95% and -24.39%
[3]; GABAA, replicate 4
  Inhibition 4: 9.15% and 0.47%
[3]; H3, mean inhibition
  Mean %: 13.41%
[3]; H3, replicate 1
  Inhibition 1: 10.42%
[3]; H3, replicate 2
  Inhibition 2: 5.17%
[3]; H3, replicate 3
  Inhibition 3: 19.16%
[3]; H3, replicate 4
  Inhibition 4: 18.87%
[3]; H4, mean inhibition
  Mean %: -11.7%
[3]; H4, replicate 1
  Inhibition 1: -16.74%
[3]; H4, replicate 2
  Inhibition 2: -15.78%
[3]; H4, replicate 3
  Inhibition 3: -13.62%
[3]; H4, replicate 4
  Inhibition 4: -0.66%
[3]; Sigma 1, mean inhibition
  Mean %: 4.17%
[3]; Sigma 2, mean inhibition
  Mean %: -5.66%
[4]; 5-HT6, mean inhibition
  Mean %: -6.87%
[4]; 5-HT6, replicate 1
  Inhibition 1: 12.58%
[4]; 5-HT6, replicate 2
  Inhibition 2: -11.55%
[4]; 5-HT6, replicate 3
  Inhibition 3: -17.27%
[4]; 5-HT6, replicate 4
  Inhibition 4: -11.23%
[5]; 5-HT1A, mean inhibition
  Mean %: 4.14%
[5]; 5-HT1A, replicate 1
  Inhibition 1: 11.98%
[5]; 5-HT1A, replicate 2
  Inhibition 2: 4.74%
[5]; 5-HT1A, replicate 3
  Inhibition 3: -9.57%
[5]; 5-HT1A, replicate 4
  Inhibition 4: 9.39%
[6]; M3, mean inhibition
  Mean %: 1.63%
[6]; M3, replicate 1
  Inhibition 1: 7.99%
[6]; M3, replicate 2
  Inhibition 2: 2.67%
[6]; M3, replicate 3
  Inhibition 3: -7.08%
[6]; M3, replicate 4
  Inhibition 4: 2.95%
